Assay results taken from patent US12122785B2, “Substituted pyridines, pyridazines, pyrimidines, and 1,2,4-triazines as TYK2 inhibitors” (Sudo Biosciences Limited, priority 2021, dated 2024).

What was measured:
Format in all cases: cell-based
[1] = system: TYK2 pseudokinase (JH2); IFNα-stimulated HEK-Blue IFNα/β cells; experiment: HEK-Blue IFNα/β reporter assay (STAT1-inducible SEAP) for profiling TYK2 pseudokinase (JH2) inhibition; settings: 1 ng/mL human recombinant IFNα, SEAP readout, read-out: IFNα (TYK2 inhibitory activity, IC50)
Method: (§1) Example B-1: HEK-Blue™ IL-23 and IFNα/β Reporter Assays for Profiling TYK2 Pseudokinase (JH2) Inhibition
(§2) HEK-Blue™ IL-23 and IFNα/β cells with a stably-integrated cytokine receptor and STAT3 or STAT1 express STAT-inducible secreted embryonic alkaline phosphatase (SEAP) reporter gene upon cytokine stimulation. These cells are plated in DMEM (Gibco) containing 10% heat-inactivated FBS (Gibco) and 100 U/mL PenStrep (Gibco) at 37° C. under 5% CO2 conditions for 20-22 hours. The cells are then pretreated with serially diluted test compounds for 60 min prior to stimulation with either 10 ng/mL human recombinant IL-23 (Miltenyl Biotech) or 1 ng/mL human recombinant IFNα (InvivoGen) for 22-24 hours for IL-23 or 16-18 h for IFNα. SEAP induction is measured using the QUANTI Blue™ Solution (InvivoGen) according to the manufacturer's instructions.

[2] = system: TYK2 pseudokinase (JH2); IL-23-stimulated HEK-Blue IL-23 cells; experiment: HEK-Blue IL-23 reporter assay (STAT3-inducible SEAP) for profiling TYK2 pseudokinase (JH2) inhibition; settings: 10 ng/mL human recombinant IL-23, SEAP readout, read-out: IL23 (TYK2 inhibitory activity, IC50)
Method: as §1, §2

[3] = system: IFNγ-stimulated HEK-Blue IFNγ reporter cells; experiment: HEK-Blue IFNγ reporter assay (STAT1-inducible SEAP) for determining selectivity; settings: 50 ng/mL human recombinant IFNγ, 24 hours, read-out: IFN-γ SEAP selectivity assay IC50
Method: (§3) Example B-3: HEK-Blue™ IL-2 and IFNγ Reporter Assays for Determining Selectivity
(§4) HEK-Blue™ IL-2 and IFNγ reporter cells with a stably-integrated cytokine receptor and STAT5 or STAT1 express STAT-inducible secreted embryonic alkaline phosphatase (SEAP) reporter gene upon cytokine stimulation. These cells were plated in DMEM (Gibco) containing 10% heat-inactivated FBS (Gibco) and 100 U/mL PenStrep (Gibco) at 37° C. under 5% CO2 conditions for 20-22 hours. The cells were then pretreated with serially diluted test compounds for 60 min prior to stimulation with either 4 ng/mL human recombinant IL-2 (Miltenyl Biotech) or 50 ng/mL human recombinant IFNγ (InvivoGen) for 24 hours. SEAP induction was measured using the QUANTI-Blue™ Solution (InvivoGen) according to the manufacturer's instructions.

[4] = system: IL-2-stimulated HEK-Blue IL-2 reporter cells; experiment: HEK-Blue IL-2 reporter assay (STAT5-inducible SEAP) for determining selectivity; settings: 4 ng/mL human recombinant IL-2, 24 hours
Method: as §3, §4

| Compound | IC50 [1] | IC50 [2] | IC50 [3] | IC50 [4] |
| --- | --- | --- | --- | --- |
| [2H]C([2H])([2H])NC(=O)c1nnc(NC(=O)C2CC2)cc1Nc1cccc2c1N(C)Cc1cc(C(F)(F)F)nn1-2 [Compound 54, 6-(cyclopropanecarboxamido)-N-(methyl-d3)-4-((5-methyl-2-(trifluoromethyl)-4,5-dihydropyrazolo[1,5-a]quinoxalin-6-yl)amino)pyridazine-3-carboxamide] | 300 to 1000 nM | 30 to 300 nM | – | – |
| [2H]C([2H])([2H])NC(=O)c1cnc(NC(=O)C2COC2)cc1Nc1cccc2c1N(C)Cc1cn(C)nc1-2 [Compound 24, 4-((2,5-dimethyl-4,5-dihydro-2H-pyrazolo[4,3-c]quinolin-6-yl)amino)-N-(methyl-d3)-6-(oxetane-3-carboxamido)nicotinamide] | 30 to 300 nM | 30 to 300 nM | – | – |
| [2H]C([2H])([2H])NC(=O)c1cnc(NC(=O)C2CC2)cc1Nc1cccc2c1N(C)Cc1cc(C)nn1-2 [Compound 53, 6-(cyclopropanecarboxamido)-4-((2,5-dimethyl-4,5-dihydropyrazolo[1,5-a]quinoxalin-6-yl)amino)-N-(methyl-d3)nicotinamide] | < 30 nM | < 30 nM | 30 to 300 nM | > 1000 nM |
| CNC(=O)c1nnc(NC(=O)C2CC2)cc1Nc1cccc2c1OC(C)c1cn(C)nc1-2 (centres unmarked) [Compound 10, 6-(cyclopropanecarboxamido)-4-((2,4-dimethyl-2,4-dihydrochromeno[4,3-c]pyrazol-6-yl)amino)-N-methylpyridazine-3-carboxamide] | > 1000 nM | 30 to 300 nM | – | – |
| [2H]C([2H])([2H])NC(=O)c1nnc(NC(=O)C2CC2)cc1Nc1nccc2c1N(C)[C@@H](C)c1cn(C)nc1-2 (single isomer, unassigned) [Compound 69] | 30 to 300 nM | 30 to 300 nM | – | – |
| [2H]C([2H])([2H])NC(=O)c1cnc(NC(=O)C2CC2)cc1Nc1cccc2c1N(C)[C@H](C)c1cn(C)nc1-2 (single isomer, unassigned) [Compound 31] | 30 to 300 nM | < 30 nM | – | – |
| [2H]C([2H])([2H])NC(=O)c1nnc(NC(=O)NC)cc1Nc1cccc2c1N(C)C([2H])([2H])c1cn(C)nc1-2 [Compound 33, 4-((2,5-dimethyl-4,5-dihydro-2H-pyrazolo[4,3-c]quinolin-6-yl-4,4-d2)amino)-N-(methyl-d3)-6-(3-methylureido)pyridazine-3-carboxamide] | < 30 nM | < 30 nM | 300 to 1000 nM | > 1000 nM |
| [2H]C([2H])([2H])NC(=O)c1nnc(NC(=O)NC)cc1Nc1nccc2c1N(C)[C@H](C)c1cn(C)nc1-2 (single isomer, unassigned) [Compound 78] | 300 to 1000 nM | 30 to 300 nM | – | – |
| [2H]C([2H])([2H])NC(=O)c1nnc(NC(=O)C2CC2)cc1Nc1cccc2c1N(C)C([2H])([2H])c1ccnn1-2 [Compound 58, 6-(cyclopropanecarboxamido)-N-(methyl-d3)-4-((5-methyl-4,5-dihydropyrazolo[1,5-a]quinoxalin-6-yl-4,4-d2)amino)pyridazine-3-carboxamide] | < 30 nM | < 30 nM | 300 to 1000 nM | > 1000 nM |
| [2H]C([2H])([2H])NC(=O)c1cnc(NC(=O)C2CC2)cc1Nc1nccc2c1N(C)C([2H])([2H])c1cn(C)nc1-2 [Compound 77, 6-(cyclopropanecarboxamido)-4-((2,5-dimethyl-4,5-dihydro-2H-pyrazolo[4,3-c][1,7]naphthyridin-6-yl-4,4-d2)amino)-N-(methyl-d3)nicotinamide] | < 30 nM | < 30 nM | 300 to 1000 nM | > 1000 nM |
| [2H]C([2H])([2H])NC(=O)c1nnc(NC(=O)C2CC2)cc1Nc1nccc2c1N(C)C([2H])([2H])c1cn(C)nc1-2 [Compound 72, 6-(cyclopropanecarboxamido)-4-((2,5-dimethyl-4,5-dihydro-2H-pyrazolo[4,3-c][1,7]naphthyridin-6-yl-4,4-d2)amino)-N-(methyl-d3)pyridazine-3-carboxamide] | – | < 30 nM | – | 300 to 1000 nM |
| [2H]C([2H])([2H])NC(=O)c1nnc(NC(=O)C2CC2)cc1Nc1cccc2c1N(C)C([2H])([2H])c1cc(C)nn1-2 [Compound 56, 6-(cyclopropanecarboxamido)-4-((2,5-dimethyl-4,5-dihydropyrazolo[1,5-a]quinoxalin-6-yl-4,4-d2)amino)-N-(methyl-d3)pyridazine-3-carboxamide] | < 30 nM | < 30 nM | 30 to 300 nM | > 1000 nM |
| [2H]C([2H])([2H])NC(=O)c1nnc(NC(=O)C2CC2)cc1Nc1nccc2c1N(C)[C@H](C)c1cc(C)nn1-2 [Compound 81, (R)-6-(cyclopropanecarboxamido)-N-(methyl-d3)-4-((2,4,5-trimethyl-4,5-dihydropyrazolo[1,5-a]pyrido[3,4-e]pyrazin-6-yl)amino)pyridazine-3-carboxamide] | < 30 nM | < 30 nM | – | – |
| [2H]C([2H])([2H])NC(=O)c1cnc(NC(=O)C2CC2)cc1Nc1nccc2c1N(C)C([2H])([2H])c1cc(C)nn1-2 [Compound 76, 6-(cyclopropanecarboxamido)-4-((2,5-dimethyl-4,5-dihydropyrazolo[1,5-a]pyrido[3,4-e]pyrazin-6-yl-4,4-d2)amino)-N-(methyl-d3)nicotinamide] | < 30 nM | < 30 nM | 300 to 1000 nM | > 1000 nM |
| [2H]C([2H])([2H])NC(=O)c1cnc(NC(=O)C2CC2)cc1Nc1cccc2c1N(C)Cc1cn(C(C)C)nc1-2 [Compound 37, 6-(cyclopropanecarboxamido)-4-((2-isopropyl-5-methyl-4,5-dihydro-2H-pyrazolo[4,3-c]quinolin-6-yl)amino)-N-(methyl-d3)nicotinamide] | 30 to 300 nM | < 30 nM | – | – |
| [2H]C([2H])([2H])NC(=O)c1nnc(NC(=O)C2CC2)cc1Nc1cccc2c1N(C)Cc1cn(C(C)C)nc1-2 [Compound 91, 6-(cyclopropanecarboxamido)-4-((2-isopropyl-5-methyl-4,5-dihydro-2H-pyrazolo[4,3-c]quinolin-6-yl)amino)-N-(methyl-d3)pyridazine-3-carboxamide] | 30 to 300 nM | < 30 nM | – | – |
| CNC(=O)c1nnc(Nc2ccc(F)cn2)cc1Nc1cccc2c1OC(C)c1cn(C)nc1-2 (centres unmarked) [Compound 11, 4-((2,4-dimethyl-2,4-dihydrochromeno[4,3-c]pyrazol-6-yl)amino)-6-((5-fluoropyridin-2-yl)amino)-N-methylpyridazine-3-carboxamide] | > 1000 nM | 30 to 300 nM | – | – |
| [2H]C([2H])([2H])NC(=O)c1cnc(NC(=O)C2CC2)cc1Nc1cccc2c1N(C)Cc1cc(C(F)(F)F)nn1-2 [Compound 55, 6-(cyclopropanecarboxamido)-N-(methyl-d3)-4-((5-methyl-2-(trifluoromethyl)-4,5-dihydropyrazolo[1,5-a]quinoxalin-6-yl)amino)nicotinamide] | 300 to 1000 nM | 30 to 300 nM | – | – |
| [2H]C([2H])([2H])NC(=O)c1nnc(N(C)C(=O)C2CC2)cc1Nc1nccc2c1N(C)C([2H])([2H])c1cn(C)nc1-2 [Compound 62, 4-((2,5-dimethyl-4,5-dihydro-2H-pyrazolo[4,3-c][1,7]naphthyridin-6-yl-4,4-d2)amino)-N-(methyl-d3)-6-(N-methylcyclopropanecarboxamido)pyridazine-3-carboxamide] | 30 to 300 nM | < 30 nM | – | – |
